The text below walks through data of patent US20030109468A1, “Novel compounds that enhance dimerization of the subunits of HIV-1 reverse transcriptase having mutations associated with resistance to nonnucleoside reverse transcriptase inhibitors” (priority 2001, published 2003).

The target in assay [1] is lexA87-66Y181C and wild type Gal4AD-51 (Human immunodeficiency virus type 1 group M subtype B, UniProt P12497, Y768C). It is filed as cell-based, HIV-1. The note with it: yeast grown in the presence of drug. On the procedure: (§1) CTY10-5d transformed constructs expressing p66 bait and p51 prey fusions were grown overnight to stationary phase in synthetic complete medium without histidine and leucine and containing 2% glucose (SC-His-Leu). […] Yeast were grown with aeration at 30° C. to OD600=0.5. The equivalent of 1 OD600 unit was pelleted for each treatment and subjected to a quantitative _-gal liquid assay.

Assay [2] concerns the target T1, HIV-1 RT p66 bait and p51 prey fusions with the W401A change (Human immunodeficiency virus type 1 group M subtype B, UniProt P12497, W988A).
T1 construct: p66 corresponds to codons 1-560 and p51 corresponds to codons 1-440 in the RT gene; expressed in transfected cells; host or cells: Saccharomyces cerevisiae CTY10-5d
It is filed as cell-based. Conditions: W401A in one or both subunits. How it is done: as §1

A further assay deals with lexA87 and Gal4AD. The assay can be described thus: Y2H specificity control, empty vectors pSH21 and pGADNOT. It is filed as cell-based. The note with it: serial dilutions, even in the presence of 15 μM of drug. From the text: (§2) The specificity of the β-gal enhancement by NNRTIs was investigated. […].
Assay [3] has as its system moloney murine leukemia virus reverse transcriptase with elongation factor release factor 1 and other unrelated pairs. The experiment in a line: Y2H specificity control, unrelated protein-protein interaction pairs. It is filed as cell-based.
From the text: as §2

Assay [4] concerns the target T2, lexA87-66W401A and Gal4AD-HA-51W401A (Human immunodeficiency virus type 1 group M subtype B, UniProt P12497, W988A).
T2 construct: p66 corresponds to codons 1-560 and p51 corresponds to codons 1-440 in the RT gene; expressed in transfected cells; host or cells: Saccharomyces cerevisiae CTY10-5d
The assay can be described thus: Coimmunoprecipitation of p66 and p51 in yeast lysates, W401A mutant. It is filed as cell-based, HIV-1. From the text: […]; Preparation of protein extracts and immunoprecipitation were as previously described (30) except for the use of anti-HA.11 monoclonal antibodies (clone 16B12; Covance, Princeton, N.J.) and Protein G-PLUS agarose beads (Santa Cruz Biotechnology; Santa Cruz, Calif.). Samples were resolved by SDS-PAGE. The lexA87-66 fusion protein was probed using monoclonal antibodies 7E5 which specifically detects p66 (31).
To directly test for induced heterodimerization by NNRTIs we subjected lysates from yeast expressing dimerization defective mutants to coimmunoprecipitation. […]. Hemagglutinin (HA) antibodies were used to immunoprecipitate the p51 prey and the presence of any bound p66 bait was then detected using anti-p66 specific antibodies. For coimmunoprecipitation of the p66 bait fusions, samples were divided into two with one part processed without added NNRTI while the other was maintained in drug at the same concentration used during growth of yeast. […] […].

Another assay addresses T3, RT heterodimer (Human immunodeficiency virus type 1 group M subtype B, UniProt P12497).
T3 construct: The HIV-1 RT is an asymmetric dimer consisting of p66 and p51 polypeptides
The note with it: cited from earlier work.

For assay [5], the target named is p66W401A-His and GST-p51W401A (Human immunodeficiency virus type 1 group M subtype B, UniProt P12497, W988A). The experiment in a line: In vitro heterodimerization in bacterial lysates, W401A mutant.
Method: The heterodimerization of bacterially expressed wild-type p66-His and GST-p51 (or mutants) was assessed in bacterial lysates as described previously (22). […] Lysates were washed 4 times with lysis buffer using a centricon-YM-50 filter device (Millipore Corporation, Bedford, Mass.) to remove unbound drug. 5 μg of the corresponding RT subunit was applied to the washed lysates (in 500 μl) and incubated for 1.5 hr at 40C. Heterodimers were captured onto beads (22), resolved by SDS/PAGE and detected using RT antibodies (monoclonal antibody 5B2) (31).
For assay [6], the target named is T4, lexA87-66 and Gal4AD-51 (p66 and p51 subunits of the HIV-1 RT) (Human immunodeficiency virus type 1 group M subtype B, UniProt P12497).
T4 construct: p66 corresponds to codons 1-560 and p51 corresponds to codons 1-440 in the RT gene; expressed in transfected cells; host or cells: Saccharomyces cerevisiae CTY10-5d
It is filed as cell-based. How it is done:
Transformation of yeast and the qualitative β-galactosidase (β-gal) colony lift assay were as published (19). Quantification of protein-protein interactions was determined using the β-gal liquid assay performed on permeabilized yeast grown from three independent transformants using orthonitrophenyl-β-D-galactopyranoside as substrate (19).
as §1
To test the effects of NNRTIs on the association of the RT polypeptides we used a yeast genetic assay that measures RT heterodimerization (22). In this assay yeast expressing the p66 subunit of the HIV-1 RT fused to the C-terminus of lexa 87 (lexA87-66) and the p51 subunit fused to the Gal4AD (Gal4AD-51) constitutively interact, resulting in the activation of the expression from an integrated Lac Z reporter gene. To test for the effects of the NNRTIs on this interaction, 10 drugs representing 7 different NNRTI classes were added to the culture medium during growth of the yeast and β-gal levels were determined.

In the next assay the target is HIV-1 RT (Human immunodeficiency virus type 1 group M subtype B, UniProt P12497). It is filed as biochemical. The note with it: exogenous RT assay, results not shown.
In assay [7] the target is T5, HIV-1 RT p66 bait and p51 prey fusions with the L234A change (Human immunodeficiency virus type 1 group M subtype B, UniProt P04585, L821A).
T5 construct: p66 corresponds to codons 1-560 and p51 corresponds to codons 1-440 in the RT gene; expressed in transfected cells; host or cells: Saccharomyces cerevisiae CTY10-5d
It is filed as cell-based. Conditions: L234A in one or both subunits. How it is done: as §1

Assay [8] addresses T6, lexA87-66L234A and Gal4AD-HA-51L234A (Human immunodeficiency virus type 1 group M subtype B, UniProt P04585, L821A).
T6 construct: p66 corresponds to codons 1-560 and p51 corresponds to codons 1-440 in the RT gene; expressed in transfected cells; host or cells: Saccharomyces cerevisiae CTY10-5d
It is filed as cell-based, HIV-1. The note with it: yeast grown with efavirenz 1.6 μM or UC781 16 μM, compared to no drug. From the text: Samples were resolved by SDS-PAGE.
Hemagglutinin (HA) antibodies were used to immunoprecipitate the p51 prey and the presence of any bound p66 bait was then detected using anti-p66 specific antibodies. For coimmunoprecipitation of the p66 bait fusions, samples were divided into two with one part processed without added NNRTI while the other was maintained in drug at the same concentration used during growth of yeast.

In another assay the target is T7, p66-His and GST-p51 (Human immunodeficiency virus type 1 group M subtype B, UniProt P04585).
T7 construct: p66 corresponds to codons 1-560 and p51 corresponds to codons 1-440 in the RT gene; made in house; host or cells: E. coli M15 (p66-His) and BL21 (GST-p51), unpurified lysates
It is filed as binding, HIV-1. On the procedure:
Plasmids expressing wild-type and p66 mutants with a histidine tag at the C-terminus (p66-His) were constructed by cloning the p66 coding region into the SphI -BglII site of pQE-70 (Qiagen, Chatsworth, Calif.). […] Glutathione S-transferase tagged p51 (GST-p51) was prepared by subcloning the BamHI-SalI fragment from p51HXGADNOT into pGEX5X-3 (Amersham Pharmacia). Cells were induced and then lysed by the addition of 1 mg/ml of lysozyme to 1 ml of lysis buffer [50 mM sodium phosphate buffer (pH 7.8), 500 mM NaCl, 0.5% Nonidet P-40, 5 mM DTT, and 1 μg/ml each of pepstatin A, aprotinin and leupeptin] and clarified. Lysates were combined and incubated for 16 hrs at 4° C. The heterodimer was captured on Glutathione Sepharose 4B beads and unbound subunits were removed by washing with lysis buffer. Heterodimer bound to beads were resolved by SDS/PAGE. For quantification of RT activity, dimers were eluted from beads with 10 mM reduced glutathione in 50 mM Tris (pH 8.0). Samples were assayed for DNA polymerase activity on homopolymeric template-primers for various times, and the activity was determined from the initial slope of the linear phase of the time course.

The subject of a further assay is HIV-1. The note with it: cited from earlier work.
The target in assay [9] is HIV-1 RT with Y181C mutation in the p66 subunit (Human immunodeficiency virus type 1 group M subtype B, UniProt P12497, Y768C). Conditions: cited from earlier work.
In the next assay the target is T8, p66/p51 heterodimer (Human immunodeficiency virus type 1 group M subtype B, UniProt P12497).
T8 construct: The HIV-1 RT is an asymmetric dimer consisting of p66 and p51 polypeptides
Conditions: cited from earlier work.

[10] abbreviates: yeast expressing lexA87-66 and Gal4AD-51 grown with drug.
[11] abbreviates: bacterial lysates, overnight at 4° C.

“Also recorded” adds a separate entry of the source. Like-named read-outs stand apart in the source and are kept apart here. Bounds are passed on as bounds.

Turning to `O=C1Nc2ccc(Cl)cc2[C@@](C#CC2CC2)(C(F)(F)F)O1` [efavirenz, (S)6-chloro-4(cyclopropylethynyl)-1,4-dihydro-4-(trifluoromethyl)-2H-3,1-benzoxazin-2-one], the “β-gal enhancement with Y181C in the p66 bait” value in assay [1] is “significant level of β-gal enhancement was still retained”. Moreover, in assay [2], the “enhancement of β-gal activity, W401A mutant, in words” value is recorded as “dramatic increase in β-gal activity”. Moreover, the “increase in β-gal activity, empty vectors” value in the assay with lexA87 and Gal4AD is “no increase in β-gal activity”. For the same molecule, in assay [3], the “effect on β-gal activity of unrelated protein-protein interaction pairs” value is listed as “no enhancement or inhibition of β-gal activity”. In addition, in assay [4], the “heterodimer in lysates of yeast grown without drug, drug added during coimmunoprecipitation, W401A” value was “significantly more heterodimer present” and the “p66 bait coimmunoprecipitated with p51 prey, W401A” value is on record as “clear increase”. The “binding to the RT heterodimer” value on RT heterodimer is on record as “bind very tightly”. For the same molecule, in assay [5], the “molar excess of drug giving a significant increase in dimer formation, W401A” value was 10 fold molar excess.
As for `CC(C)OC(=O)c1cc(NC(=S)OC(C)C)ccc1Cl` [UC38], the “concentration of drug that mediates a 5-fold increase in β-gal activity, rank” value in [6] (Y2H assay, results not shown) is “least active”. Moreover, the “RT inhibitory activity (50% inhibitory concentration), rank” value at HIV-1 RT was “least active”.
Take `CC(C)=CCOc1cc(NC(=S)c2ccoc2C)ccc1Cl` [UC781, N-[4-chloro-3-(3-methyl-2-butenyloxy)phenyl]-2-methyl-3-furancarbothioamide]: in assay [6] (setting [10]), the “enhancement of β-gal activity, in words / relative potency” value is listed as “second most potent drug”. Also, the “enhancement of β-gal activity, L234A mutant, in words” value in assay [7] was “no enhancement”. In addition, the “enhancement of β-gal activity, W401A mutant, in words” value in assay [2] was “could also enhance the β-gal activity”. In addition, the “p66 bait coimmunoprecipitated with p51 prey, W401A” value in assay [4] (yeast grown with efavirenz 1.6 μM or UC781 16 μM, compared to no drug) is on record as “heterodimer formation”. The “p66 bait coimmunoprecipitated with p51 prey, L234A” value in assay [8] is on record as “not for the L234A mutant”. Further, the “enhancement of dimerization of GST-p51 and p66-His in vitro, in words” value (from here on “enhancement of dimerization … in words”) on p66-His and GST-p51 (setting [11]) is given as “poor dimerization inducers”. Moreover, in the assay on HIV-1, the “inhibition of HIV-1 replication in vitro” value was “extremely potent inhibitors”. At RT heterodimer, the “binding to the RT heterodimer” value was “bind very tightly” and the “dissociation rates (Koff)” value is recorded as “very slow dissociation rates”.
For `COc1ccc2c(c1)N(C(=O)OC(C)C)[C@@H](CSC)C(=S)N2` [HBY 097, (S)-4-isopropoxycarbonyl-6-methoxy-3-(methylthiomethyl)-3,4-dihydroquinoxaline-2(1H)-thione], the “enhancement of β-gal activity, in words / relative potency” value in [6] (setting [10]) is recorded as “most potent”. The “inhibition of HIV-1 replication in vitro” value with HIV-1 is recorded as “extremely potent inhibitors”.
Regarding `CC(C)Nc1cccnc1N1CCN(C(=O)c2cc3cc(NS(C)(=O)=O)ccc3[nH]2)CC1` [delavirdine, piperazine, 1-[3-[(1-methyl-ethyl)amino]-2-pyridinyl]-4-[[5-[(methysulfonyl)amino]-1H-indol-2-yl]carbonyl]-, monomethanesulfonate], the “enhancement of β-gal activity, in words / relative potency” value in assay [6] is “devoid of P-gal enhancing activity”. For the same molecule, at p66-His and GST-p51, the “enhancement of dimerization … in words” value was “inactive in vitro”.
As for `Cc1ccnc2c1NC(=O)c1cccnc1N2C1CC1` [nevirapine, 11-cyclopropyl-5,11,-dihydro-4-methyl-6H-dipyrido[3,2-b:2′3′-][1,4] diazepin-6-one], the “β-gal enhancement with Y181C in the p66 bait” value in assay [1] is “totally negated the enhancement effect”. Moreover, the “increase in resistance conferred by Y181C” value in [9] is on record as over 100 fold.
Regarding `Cc1occc1C(=S)Nc1ccc(Cl)c(/C=N/OC(C)(C)C)c1` [UC10], the “enhancement of dimerization … in words” value on p66-His and GST-p51 (setting [11]) is listed as “poor dimerization inducers”.
`CCn1c(=O)c(C)cn([C@@H]2O[C@H](CO[Si](C)(C)C(C)(C)C)C3(OS(=O)(=O)C=C3N)[C@H]2O[Si](C)(C)C(C)(C)C)c1=O` (stereo partly drawn) [TSAOe^3T]: on p66/p51 heterodimer, the “destabilization of the p66/p51 heterodimer” value is listed as “more modest destabilization only detectable in the presence of denaturants”.
As for “2′,5′-bis-O-(tert-butylidimethylsilyl) -3′-spiro-5″-4″-amino-1″,2″-oxothiole-2″,2″-dioxide)]-b-D- pentofuranosyl [TSAO]”, the “inhibition of β-gal activity in the Y2H system” value in assay [6] (preliminary tests, data not shown, uptake by yeast not ruled in) is reported as “no inhibition of β-gal activity”. The “effect on heterodimerization in in vitro binding assays” value at p66-His and GST-p51 (preliminary tests, data not shown) is reported as “reduce heterodimerization”. At p66/p51 heterodimer, the “destabilization of the p66/p51 heterodimer” value was “destabilization of the p66/p51 heterodimer; also recorded: destabilize the p66/p51 heterodimer”.
